{"source": "patent US9669009B2", "about": "“Rapid disperse dosage form containing levetiracetam” (APRECIA PHARMACEUTICALS COMPANY, priority 2013, dated 2017)", "key": {"[1]": {"test": "Evaluation of antioxidants for LEV stability in raw tablet compositions (Example 6)", "experimental": "The following procedures were used to identify the preferred antioxidant(s) suitable stabilizing LEV against oxidative degradation.\nA powder blend containing the following ingredients in the amounts indicated was prepared.\nA printing fluid containing the following ingredients in the amounts indicated was prepared.\nFor example, the amount of antioxidant would be “(IIG daily limit)/2” for a 1000 mg tablet administered twice daily. It should be understood that IIG limits are periodically changed by regulatory agencies. Accordingly, the limits specified below should be considered approximations and not as absolute limits to the amount of antioxidant that can be included in a dosage form.\nThe antioxidant was mixed with 6 mL of printing fluid. That mixture was then mixed with 30 g of powder blend to form a raw tablet composition, each of which was exposed to the following conditions: Condition 1—store composition at 70 C in tightly sealed glass jar; Condition 2—store composition at 50 C in loosely covered glass jar; and Condition 3—store composition at 40 C/75% RH in open glass jar.\nThe samples were subsequently analyzed by HPLC/MS and the identity of two key degradants was determined by comparison to standards. The key degradants were levetiracetam acid and oxo-levetiracetam."}, "[2]": {"conditions": "accelerated (60° C.) stress: acidic, alkaline, aqueous, oxidative, thermal or photo; Shah 2012; cited from earlier work"}, "[3]": {"test": "Oxidative degradation of LEV in 3DP dosage form, HPLC/MS", "type": "physicochemical", "conditions": "antioxidant absent, oxidative excipient (povidone or silica with peroxide impurity) present", "experimental": "The stability of LEV to oxidative degradation when included in a 3DP dosage form of the invention was determined by exposing finished dosage forms to heat. The formation of degradants was observed and monitored by HPLC/MS as detailed below. […] Povidone and silica, however, are important functional ingredients. Accordingly, the invention provides a stable rapidly dispersible dosage form comprising LEV, oxidative excipient, antioxidant, binder and disintegrant, wherein the matrix comprises 0.1% by wt or less of an oxidative degradant of LEV after storage for six months at 21° C. and 75% RH.\nThe following procedures were used to analyze three-dimensionally printed solid porous orodispersible matrices and in support of drug-stability studies.\nSamples were prepared by transferring approximately 380 mg of sample to a 50-mL volumetric flask with 30 mL of Diluent. The sample was sonicated for 10 minutes then filled to volume with Diluent. A portion was filtered through a 0.22 μm nylon filter, discarding the first 3-5 mL.\nMass spectrophotometry was conducted by directly infusing a sodium formate solution into the mass spectrometer through the lock spray at 100 μL/min using a syringe pump. The sodium formate peak at m/z 158.9646126 was used for accurate mass analysis. The accurate masses were used for elemental composition analysis using the MassLynx software. […]"}, "[4]": {"conditions": "cited from earlier work"}, "[5]": {"conditions": "antioxidant at half IIG daily limit in raw tablet composition, 70 C sealed, 50 C loosely covered, 40 C/75% RH open"}}, "note": "“Also recorded” adds a separate entry of the source. Like-named read-outs stand apart in the source and are kept apart here.", "data": [{"smiles": "COc1ccc(O)c(C(C)(C)C)c1", "note": "[BHA, Butylated hydroxyanisole]", "values": [{"measurement": "stability against oxidative degradation and color formation", "setting": "[1]; [5]", "result": "improved stability against oxidative degradation and against color formation; also recorded: best results"}]}, {"smiles": "CC[C@@H](C(N)=O)N1CCCC1=O", "note": "[Levetiracetam, (S)-2-(2-oxopyrrolidin-1-yl)butanamide]", "values": [{"measurement": "degradation under stress", "setting": "[2]", "result": "substantial degradation"}, {"measurement": "oxidative degradation of LEV in 3DP dosage form exposed to heat", "setting": "[3]", "result": "undergoes oxidative degradation to form oxo-levetiracetam"}, {"measurement": "solubility in acetonitrile", "setting": "[4]; acetonitrile", "result": 5.7, "unit": "g/100 mL"}, {"measurement": "solubility in chloroform", "setting": "[4]; chloroform", "result": 65.3, "unit": "g/100 mL"}, {"measurement": "solubility in ethanol", "setting": "[4]; ethanol", "result": 16.5, "unit": "g/100 mL"}, {"measurement": "solubility in methanol", "setting": "[4]; methanol", "result": 53.6, "unit": "g/100 mL"}, {"measurement": "solubility in n-hexane", "setting": "[4]; n-hexane", "result": "practically insoluble"}, {"measurement": "solubility in water", "setting": "[4]; water", "result": 104.0, "unit": "g/100 mL"}]}, {"smiles": "Cc1c(C)c2c(c(C)c1O)CC[C@@](C)(CCC[C@H](C)CCC[C@H](C)CCCC(C)C)O2", "note": "[Vitamin E, Alpha-tocopherol]", "values": [{"measurement": "stability against oxidative degradation and color formation", "setting": "[1]", "result": "improved stability against oxidative degradation and against color formation"}]}, {"smiles": "CSCC[C@H](N)C(=O)O", "note": "[methionine, Methionine]", "values": [{"measurement": "stability against oxidative degradation and color formation", "setting": "[1]", "result": "improved stability against oxidative degradation and against color formation"}]}, {"smiles": "O=S([O-])O.[Na+]", "note": "[sodium bisulfite, Sodium bisulfite]", "values": [{"measurement": "stability against oxidative degradation and color formation", "setting": "[1]; [5]", "result": "improved stability against oxidative degradation and against color formation"}, {"measurement": "stability against oxidative degradation and color formation", "setting": "[1]; antioxidant at half IIG daily limit in raw tablet composition, 70 C sealed, 50 C loosely covered, 40 C/75% RH open, listed as Sodium bisulfite", "result": "best results"}]}, {"smiles": "O=S([O-])[O-].[Na+].[Na+]", "note": "[sodium sulfite, Sodium sulfite]", "values": [{"measurement": "stability against oxidative degradation and color formation", "setting": "[1]; [5]", "result": "improved stability against oxidative degradation and against color formation; also recorded: best results"}]}]}
